Test results from US9695155B2, “Herbicidal substituted pyrimidinyloxy benzene compounds” (E. I. DU PONT DE NEMOURS AND COMPANY, priority 2013, dated 2017).

Columns and labels:
fall panicum = test: Test E postemergence; type: in vivo, Panicum dichotomiflorum; conditions: Panicum dichotomiflorum, post-emergence, read-out: Plant response rating, Panicum, Fall
How it was run: (§1)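 Response was scored visually on a 0-100 scale (100 = complete control) versus controls after 14 to 21 days in the greenhouse. Test chemicals, formulated with surfactant in a non-phytotoxic solvent mixture, had been applied preemergence to seeds in silt loam soil or postemergence to 1- to 4-leaf plants in potting medium.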

blackgrass = test: Test D preemergence; type: in vivo, Alopecurus myosuroides; conditions: Alopecurus myosuroides, pre-emergence
Source text: Seeds of plant species selected from bluegrass (annual bluegrass, Poa annua), blackgrass (Alopecurus myosuroides), canarygrass (littleseed canarygrass, Phalaris minor), chickweed (common chickweed, Stellaria media), galium (catchweed bedstraw, Galium aparine), bromegrass, downy (downy bromegrass, Bromus tectorum), field poppy (Papaver rhoeas), field violet (Viola arvensis), green foxtail (Setaria viridis), deadnettle (henbit deadnettle, Lamium amplexicaule), Italian ryegrass (Lolium multiflorum), kochia (Kochia scoparia), lambsquarters (Chenopodium album), oilseed rape (Brassica napus), pigweed (Amaranthus retroflexus), chamomile (scentless chamomile, Matricaria inodora), Russian thistle (Salsola kali), speedwell (bird's-eye speedwell, Veronica persica), spring barley (Hordeum vulgare), spring wheat (Triticum aestivum), wild buckwheat (Polygonum convolvulus), wild mustard (Sinapis arvensis), wild oat (Avena fatua), wild radish (Raphanus raphanistrum), windgrass (Apera spica-venti), winter barley (Hordeum vulgare), and winter wheat (Triticum aestivum) were planted into a silt loam soil and treated preemergence with test chemicals formulated in a non-phytotoxic solvent mixture which included a surfactant.
At the same time, these species were planted in pots containing Redi-Earth® planting medium (Scotts Company, 14111 Scottslawn Road, Marysville, Ohio 43041) comprising spaghnum peat moss, vermiculite, wetting agent and starter nutrients and treated with postemergence applications of the test chemicals formulated in the same manner. Plants ranged in height from 2 to 18 cm (1- to 4-leaf stage). Treated plants and controls were maintained in a controlled growth environment for 7 to 21 days after which time all species were compared to controls and visually evaluated. Plant response ratings, summarized in Table D, are based on a scale of 0 to 100 where 0 is no effect and 100 is complete control. A dash (-) response means no test result.

soybean = test: Test E postemergence; type: in vivo, Glycine max; conditions: Glycine max, post-emergence
How it was run: as §1

sowthistle = test: Test F preemergence; type: in vivo, Sonchus oleraceous; conditions: 21 days, scale 0 to 100
Source text: (§2) Seeds of plant species selected from bermudagrass (Cynodon dactylon), surinam grass (Brachiaria decumbens), large (Lg) crabgrass (Digitaria sanguinalis), crabgrass, naked (naked crabgrass, Digitaria nuda), foxtail, green (green foxtail, Setaria viridis), johnsongrass (Sorghum halepense), kochia (Kochia scoparia), morningglory (pitted morningglory, Ipomoea lacunosa), nutsedge, purple (purple nutsedge, Cyperus rotundus), ragweed (common ragweed, Ambrosia elatior), mustard, black (black mustard, Brassica nigra), guineagrass (Panicum maximum), dallisgrass (Paspalum dilatatum), barnyardgrass (Echinochloa crus-galli), sandbur (southern sandbur, Cenchrus echinatus), sowthistle (common sowthistle, Sonchus oleraceous), Italian ryegrass (Lolium multiflorum), signalgrass (broadleaf signalgrass, Brachiaria platyphylla), dayflower (Virginia (VA) dayflower, Commelina virginica), bluegrass (annual bluegrass, Poa annua), quackgrass (Elytrigia repens), mallow (common mallow, Malva sylvestris), buckwheat, wild (wild buckwheat, Polygonum convolvulus), leafy spurge (Euphorbia esula), chickweed (common chickweed, Stellaria media), wild poinsettia (Euphorbia heterophylla), and pigweed (Amaranthus retroflexus) were planted into a blend of loam soil and sand and treated preemergence with test chemicals formulated in a non-phytotoxic solvent mixture which included a surfactant.
(§3) Treated plants and controls were maintained in a greenhouse for 21 days, after which time all species were compared to controls and visually evaluated. Plant response ratings, summarized in Table F, are based on a scale of 0 to 100 where 0 is no effect and 100 is complete control. A dash (-) response means no test result.

ragweed = test: Test F preemergence; type: in vivo, Ambrosia elatior; conditions: 21 days, scale 0 to 100
Source text: as §2, §3

[1] = Postemergence, 31 g ai/ha, scale 0 to 100
[2] = Postemergence, 62 g ai/ha, scale 0 to 100
[3] = Postemergence, 125 g ai/ha, scale 0 to 100
[4] = postemergence, 8 g ai/ha, scale 0 to 100, 0 no effect, 100 complete control
[5] = postemergence, 16 g ai/ha, scale 0 to 100, 0 no effect, 100 complete control

In the case of `N#Cc1cccc(Oc2ncc(Cl)cn2)c1-n1cc(OCC(F)(F)F)cn1` [Compound 274, 3-[(5-chloro-2-pyrimidinyl)oxy]-2-[4-(2,2,2-trifluoroethoxy)-1H-pyrazol-1-yl]benzonitrile], the pest or weed control at 31 g/ha (fall panicum; [1]) is reported as 20%, the pest or weed control at 62 g/ha (fall panicum; [2]) is reported as 50% and the pest or weed control at 125 g/ha (fall panicum; [3]) is reported as 20%. The pest or weed control at 8 g/ha (fall panicum; [4]) was 10%, the pest or weed control at 16 g/ha (fall panicum; [5]) was 15% and the pest or weed control at 16 g/ha (blackgrass; 16 g ai/ha, scale 0 (no effect) to 100 (complete control), read-out: Plant response rating, Blackgrass) was 10%. The pest or weed control at 31 g/ha (blackgrass; 31 g ai/ha, scale 0-100, read-out: Plant response rating, Blackgrass) was 30%, the pest or weed control at 62 g/ha (blackgrass; 62 g ai/ha, scale 0-100, read-out: Plant response rating, Blackgrass) was 70% and the pest or weed control at 125 g/ha (blackgrass; 125 g ai/ha, scale 0-100, read-out: Plant response rating, Blackgrass) was 95%. It also gave a plant response (crop injury) rating, soybean, 0-100 scale at 31 g/ha (soybean; [1]) of 75%, a plant response (crop injury) rating, soybean, 0-100 scale at 62 g/ha (soybean; [2]) of 95% and a plant response (crop injury) rating, soybean, 0-100 scale at 125 g/ha (soybean; [3]) of 95%. For the same molecule, the plant response (crop injury) rating, soybean, 0-100 scale at 8 g/ha (soybean; [4]) was 20%, the plant response (crop injury) rating, soybean, 0-100 scale at 16 g/ha (soybean; [5]) was 35% and the “Plant response rating, Sowthistle” value (sowthistle; 16 g ai/ha) was 100. The “Plant response rating, Sowthistle” value (sowthistle; 31 g ai/ha) was 100, the “Plant response rating, Sowthistle” value (sowthistle; 62 g ai/ha) was 100 and the “Plant response rating, Sowthistle” value (sowthistle; 125 g ai/ha) was 100. The “Plant response rating, Sowthistle” value (sowthistle; 250 g ai/ha) was 100, the “Plant response rating, Ragweed” value (ragweed; 16 g ai/ha) was 30 and the “Plant response rating, Ragweed” value (ragweed; 31 g ai/ha) was 30. For the same molecule, the “Plant response rating, Ragweed” value (ragweed; 62 g ai/ha) was 30, the “Plant response rating, Ragweed” value (ragweed; 125 g ai/ha) was 70 and the “Plant response rating, Ragweed” value (ragweed; 250 g ai/ha) was 100.
